{
  "source": "patent US20080227829A1",
  "about": "“Neurogenic compounds” (priority 2007, published 2008)",
  "key": {"[1]": {"tested_on": "dentate gyrus", "assay": "BrdU/DAB quantification of dividing cells in the dentate gyrus after long-term study", "format": "in vivo, mice", "conditions": "for number of dividing cells (BrdU+) in the dentate gyrus: 25 mg/kg i.p. 42 days; for number of dividing cells (BrdU+) in the dentate gyrus, overall statement: running and non-running groups", "procedure": "Injections were administered intraperitoneally (i.p.) for forty-two days total. In addition to test injections, daily i.p. injections of 5-bromo-2-deoxyuridine (BrdU) [10 mg/ml] were administered for the first eight days at a dose of 50 mg/kg. Within each test group, eight mice were randomly selected to receive running exercise. These thirty-two mice (eight mice per injection group) were transferred daily (on Days 1-40 of the study) from their normal static housing to an automated voluntary running wheel cage for two hours a day. Non-running mice remained in their static cages throughout the study. After the long-term study of Example 1 and all behavioral testing was concluded (Day 42), mice were perfused using 4% paraformaldehyde and their brain tissue was extracted. Brain tissue was sectioned and stained for BrdU/DAB quantification of dividing cells. A second immunofluorescence stain was used for phenotyping of the newly dividing cells. Brain sections were also taken and stained with Brdu/NeuN/GFAP. Phenotype analysis was completed to determine the percentage of dividing cells co-labeled with NeuN, a marker used to identify mature neurons. Using the percentage, it was possible to calculate the total number of BrdU/NeuN co-labeled cells in the dentate gyrus."}, "[2]": {"tested_on": "AKT", "assay": "Western blot of phosphorylated signaling mediators", "format": "cell-based", "conditions": "5 mM apigenin; by six hours; adult neural progenitor cells starved two hours; normalized to unphosphorylated form", "procedure": "(§1) Adult neural progenitor cells were grown in proliferating conditions (N2 containing FGF2) in six-well plates for at least twenty-four hours. Before collecting cell lysates, the media was removed and replaced with DMEM/F12 for two hours (DMEM/F12 is defined media which lacks insulin and FGF2, two factors known to trigger various cell signaling pathways). In this key “starvation” step, the activation of various downstream mediators returned to steady-state levels. Cells were starved for two hours and the time zero data were collected. One of the following was added and the lysates collected at various time-points: (1) N2 only or (−) DMSO (negative control); (2) (+) DMSO (also a negative control); (3) apigenin; or (4) RA+FSK (positive control). Two time-course experiments were then carried out. The first was an early time-course to measure the acute effects of apigenin at zero minutes, ten minutes, thirty minutes, two hours, six hours, and twenty-four hours. The second experiment was a late time-course to measure long-term effects of apigenin at zero, one, two, three, and four days; the results of this experiment are not discussed here. Cell lysates were then loaded and transferred to Western Blots and the membranes hybridized with antibodies against the phosphorylated and unphosphorylated forms of each protein. The data results with the unphosphorylated form of the protein are not discussed here. The data discussed with respect to the phosphorylated protein are representative of at least three independent experiments and are normalized to the unphosphylated forms (internal control)."}, "[3]": {"tested_on": "GSK3b", "assay": "Western blot of phosphorylated signaling mediators", "format": "cell-based", "conditions": "adult neural progenitor cells; negative controls show the same results", "procedure": "as §1"}, "[4]": {"tested_on": "CREB", "assay": "Western blot of phosphorylated signaling mediators", "format": "cell-based", "conditions": "adult neural progenitor cells; negative controls show the same results", "procedure": "as §1"}, "[5]": {"tested_on": "b-catenin", "assay": "Western blot of phosphorylated signaling mediators", "format": "cell-based", "conditions": "adult neural progenitor cells; negative controls show the same results", "procedure": "as §1"}, "[6]": {"tested_on": "ERKs", "assay": "Western blot of phosphorylated signaling mediators", "format": "cell-based", "conditions": "adult neural progenitor cells; negative controls show the same results", "procedure": "as §1"}, "[7]": {"tested_on": "mice", "assay": "Object recognition, visual paired comparison task (VPC)", "format": "in vivo", "procedure": "Each mouse receiving either apigenin 25 mg/kg or Tween 80:0.9% NaCl (control) solutions was administered an i.p. injection of either drug or control for 7 days, after which they were trained and tested on visual paired comparison task (VPC) behavioral assay. The paradigm consisted of habituation to the experimental room for two hours prior to the experiment on Days 1 and 2. After habituation on Day 1, mice were given a five minute exposure to the testing chamber, followed by a thirty second exploration of two identical objects (familiarization training). Twenty-four hours after the familiarization training, mice were once again re-habituated to the room and testing chamber for two hours and one minute, respectively. After re-habituation mice were placed back into the testing chamber and allowed to explore a familiar and novel object for five minutes. Object exploration times were measured for both familiar and novel objects on Days 1 and 2. Both objects were identical, but the “novel” object was in a different location."}, "[8]": {"tested_on": "dentate gyrus", "assay": "BrdU/NeuN/GFAP phenotyping of newly dividing cells (neurogenesis) in the dentate gyrus", "format": "in vivo, mice", "conditions": "for number of BrdU+ cells co-labeled with NeuN (new neurons) in the dentate gyrus: 25 mg/kg i.p. 42 days, runners, vs all other groups, p<0.001", "source_text": "After the long-term study of Example 1 and all behavioral testing was concluded (Day 42), mice were perfused using 4% paraformaldehyde and their brain tissue was extracted. Brain tissue was sectioned and stained for BrdU/DAB quantification of dividing cells. A second immunofluorescence stain was used for phenotyping of the newly dividing cells. Brain sections were also taken and stained with Brdu/NeuN/GFAP. Phenotype analysis was completed to determine the percentage of dividing cells co-labeled with NeuN, a marker used to identify mature neurons. Using the percentage, it was possible to calculate the total number of BrdU/NeuN co-labeled cells in the dentate gyrus."}, "[9]": {"tested_on": "dentate gyrus", "assay": "10-day oral (food) and i.p. study, BrdU/DAB quantification of dividing cells", "format": "in vivo, mice", "conditions": "10 days; i.p. injection (apigenin 25 mg/kg, epicatechin 20 mg/kg) or food 250 ppm and 500 ppm; vs controls", "procedure": "A 10-day food study was conducted in which the effects of oral administration of apigenin were compared with apigenin effects upon injection. Food pellets containing epicatechin were tested alongside apigenin. Animals were fed food containing apigenin, epicatechin or control pellets in two doses: 250 ppm and 500 ppm. Aliquots of apigenin and epicatechin were dissolved in [10:90] Tween 80: 0.9% NaCl. Aliquots of Tween 80: 0.9% NaCl were used as controls. Forty mice (age seven weeks) were divided into three test injection groups (n=five per group) and five test food groups (n=five per group) and received: Test injections were administered i.p. for ten days total. Test food was distributed on Day 1 and mice were allowed to eat freely for the duration of the ten days. Daily i.p. injections of BrdU [10 mg/ml] were administered to all animals the first eight days of this study at a dose of 50 mg/kg. At the end of ten days, all mice were perfused using 4% paraformaldehyde and their brain tissue was extracted. Brain tissue was sectioned and stained for BrdU/DAB quantification for dividing cells."}},
  "note": "Entries after “also recorded” stand apart in the source; their conditions may differ.",
  "data": [
    {"smiles": "O=c1cc(-c2ccc(O)cc2)oc2cc(O)cc(O)c12", "note": "[apigenin]", "values": [
      {"measurement": "number of dividing cells (BrdU+) in the dentate gyrus", "setting": "[1]; non-runners, vs control non-runners and apigenin 12.5 mg/kg non-runners, p<0.01", "result": "significant increase in the number of dividing cells"},
      {"measurement": "number of dividing cells (BrdU+) in the dentate gyrus", "setting": "[1]; runners, vs running control, p<0.05", "result": "significantly more dividing cells"},
      {"measurement": "number of dividing cells (BrdU+) in the dentate gyrus, overall statement", "setting": "[1]", "result": "increases"},
      {"measurement": "number of dividing cells (BrdU+) in the dentate gyrus, overall statement", "setting": "[1]; listed as Apigenin", "result": "increased BrdU labeling in both running and non-running groups"},
      {"measurement": "phosphorylation of AKT (pAKT)", "setting": "[2]", "result": "increased phosphorylation of AKT"},
      {"measurement": "phosphorylation of GSK3b", "setting": "[3]", "result": "non-specific effects"},
      {"measurement": "phosphorylation of CREB", "setting": "[4]", "result": "non-specific effects"},
      {"measurement": "phosphorylation of b-catenin", "setting": "[5]", "result": "non-specific effects"},
      {"measurement": "phosphorylation of ERKs", "setting": "[6]", "result": "non-specific effects"},
      {"measurement": "difference between injection groups during novel testing", "setting": "[7]; 25 mg/kg i.p. for 7 days vs Tween 80:0.9% NaCl control", "result": "No significant differences"},
      {"measurement": "preference for the novel object (object exploration time)", "setting": "[7]; 25 mg/kg i.p. for 7 days, T-test t=0.0008", "result": "significant preference for the novel object"},
      {"measurement": "number of BrdU+ cells co-labeled with NeuN (new neurons) in the dentate gyrus", "setting": "[8]", "result": "significantly higher number of new neurons than all other mice in the study"},
      {"measurement": "number of BrdU+ cells co-labeled with NeuN (new neurons) in the dentate gyrus", "setting": "[8]; listed as Apigenin", "result": "significantly more new neurons than all other groups; also recorded: greatest increase in neurogenesis"},
      {"measurement": "differentiation of the dividing cells into neurons", "setting": "[8]; overall statement", "result": "increases"},
      {"measurement": "number of dividing cells (BrdU+) in the dentate gyrus", "setting": "[9]", "result": "significant increase in the number of dividing cells; also recorded: increased BrdU labeling"}
    ]}
  ]
}
